Test results from patent publication US10350184B2, “Derivatives used in the treatment of muscle atrophy” (METABRAIN RESEARCH, priority 2015, dated 2019).

How the values were obtained:
[1] = test system: myostatin gene expression; assay: Measurement of myostatin expression in C2Cl2 (qPCR); format: cell-based, Mouse; conditions: for inhibition of the expression of myostatin: C2Cl2 cells, Table 1, 0.5 μm; for percentage of myostatin gene expression in cells in contact with the molecules related to the expression in the control cells: concentration of the compound 0.5 μm, 6 h, active if less than or close to 70%
Description: C2Cl2 myoblastic cells (ATCC CRL-1772) are seeded in 24-well plates at the density of 30,000 cells per well and cultured in DMEM (Dulbecco's Modified Eagle Medium) medium containing glucose at 4.5 g/L and supplemented with fetal calf serum (10%) and antibiotics (penicillin and streptomycin). […] The cells are then placed in a glucose-depleted medium (DMEM containing 1 g/L of glucose) and devoid of serum in the presence of the test molecules or references (IGF-1 at a concentration of 100 ng/ml) for 6 h. At the end of the experiment, messenger RNAs (mRNAs) are extracted using standard phenol and chloroform methodology. Briefly, the cells are lysed in a solution of trizol (Sigma T9424) containing a strong acid and phenol. The mRNAs are separated from the proteins by the addition of chloroform followed by centrifugation. They are then precipitated in isopropanol and then suspended at the concentration of 1 μg/μL in ultra-pure water free of RNA and DNA. 1 μg of mRNA is then converted by retro-transcription into complementary DNA by the AMV enzyme in the presence a primer and a mixture of nucleotides according to the protocol given by the supplier (Applied Biosystems 4368814). […] QPCRs are performed on a 79001-IT Fast Real-Time PCR detection system (Applied Biosystems). The programming conditions are standard and consist of 1 cycle at 95° C. for 15 min, followed by 40 cycles at 95° C. for 15 sec and 60° C. for 1 min and finalized with a melt curve step at 60° C. and 95° C. The analyzed samples all contain 100 ng of cDNA, a qPCR buffer including the enzyme, the mixture of oligonucleotides and the intercalating SYBR green, and the pair of specific primers of the gene being studied, strategically chosen between two exon sequences and at a final concentration of 200 nM. Fluorescent probes bind to the double-stranded. DNA and fluoresce only once attached to the DNA. A fluorescence threshold is established by the program of the machine. When the amount of DNA allows the fluorescent probe to exceed this threshold, a PCR cycle number called “Ct” is obtained for “cycle threshold” or cycle threshold. It is this value that is the basis of the calculations to quantify the DNA in a relative fashion. A ratio R is set between the amount of the starting DNA in a sample and that of a control, which has not been treated (i.e., R=2^−(Ct Sample−Ct Control)) and this measurement will be compared to that of a household gene known to be unmodulated by the treatment (or R=2^−NRCt).
The primers used are recorded in the following table: […]
For the effects on myostatin expression, the results are expressed as a percentage of myostatin gene expression in cells in contact with the molecules related to the expression in the control cells. The product is supposed to be active if this ratio is less than or close to 70%, the average, value of IGF-1 found at the concentration of 100 ng/mL in this test, considered as reference.

[2] = test system: muscle cells; assay: Protein synthesis (via phosphorylation of S6K1) in muscle cells; format: cell-based; conditions: for Protein Synthesis (percentage increase in 56K phosphorylation in muscle cells): significant when greater than 120%
Description: The cells are counted and seeded at a density of […] cells per well in a 24-well plate in a DMEM medium containing glucose at 4.5 g/L and supplemented with fetal calf serum (10%) and antibiotics (penicillin and streptomycin). […] The cells are then placed in a medium without glucose or leucine (Krebs medium) for 1 hour at 37° C., and then incubated for 2 hours and 30 minutes in the presence of the test products or reference, (IGF-1, 100 ng/ml) in serum-free DMEM medium containing radiolabeled leucine 2.5 μCi/mL. At the end of the incubation, the supernatants are removed and the cells are lysed in a 0.1N NaOH solution for 30 min. The radioactivity is measured in the cell fraction and the total protein amount is determined by Lowry assay. Each condition is evaluated at a minimum of n=6; IGF-1, 100 ng/mL is our control to stimulate protein synthesis. The results are expressed in cpm/μg of proteins after 2.5 hours of incubation or as a percentage with respect to the control condition.
For the effects on protein synthesis, the results are expressed as a percentage increase in 56K phosphorylation in muscle cells. This percentage is considered significant when it is greater than 120%, the observed average value of IGF-1 at the concentration of 100 ng/mL in this test, considered as reference.

[3] = test system: C2Cl2 cells; assay: Evaluation of muscle fiber diameter; format: cell-based; conditions: vs vehicle control
Description: The C2Cl2 myoblastic cells (ATCC CRL-1772) were seeded into glycerol-treated 8-well plates at a density of 10,000 cells per well and cultured in a DMEM medium containing glucose at 4.5 g/L and supplemented with fetal calf serum (10%) and antibiotics (penicillin and streptomycin).
The cells are then placed in a glucose-depleted medium (DMEM containing 1 g/L of glucose) and devoid of serum in the presence of the test molecules or references (IGF-1 at the concentration of 10 ng/mL or dexamethasone 10 nM) for 3 days. At the end of the culture, the cells are rinsed and fixed with 2.5% glutaraldehyde/0.1% Triton solution for 1 hour at room temperature. The cell layer is covered with DAPI (fluorescent labeling of the cell nucleus). After storage in the dark for 16 hours in the cold, the slides are observed under a fluorescence microscope (Carl Zeiss, AxioVert 200) and the images are analyzed using the Axiovision 4.1 software to measure the diameter of the fibers.
C2Cl2 cells are differentiated and treated with compound 1 for the last three days of differentiation.

## CCON=C(CCC(=O)O)c1ccc(Cl)c(Cl)c1 [Compound 1, 4-(3,4-dichlorophenyl)-4-ethoxyimino-butanoic acid]
[1]
  inhibition of the expression of myostatin: significantly inhibit
  percentage of myostatin gene expression in cells in contact with the molecules related to the expression in the control cells: 71%
[2]; 0.5 μm
  Protein Synthesis (percentage increase in 56K phosphorylation in muscle cells): 134%
[2]; 5 μm
  Protein Synthesis (percentage increase in 56K phosphorylation in muscle cells): 142%
[2]; 50 μm
  Protein Synthesis (percentage increase in 56K phosphorylation in muscle cells): 151%
[2]; concentration of 0.5 μM
  protein synthesis in muscle cells: significantly increases
[3]; compound 1 at 10 μM, last three days of differentiation
  diameter of the myotubes (muscle fiber diameter, FIG. 1): significantly increased

## CCON=C(CCC(=O)OC(C)C)c1ccc(Cl)c(Cl)c1 [Compound 3, Isopropyl acid 4-(3,4-dichlorophenyl)-4-ethoxyimino-butanoate]
[1]
  inhibition of the expression of myostatin: significantly inhibit
  percentage of myostatin gene expression in cells in contact with the molecules related to the expression in the control cells: 41%

## IGF-1: reference used to inhibit myostatin expression, stimulate protein synthesis and increase myotube diameter [reference compound]
[1]; IGF-1 at 100 ng/mL
  percentage of myostatin gene expression related to control cells, average value of reference: 70%
[2]; IGF-1 at 100 ng/mL
  Protein synthesis, observed average value of reference: 120%
[3]; IGF1 at 10 ng/ml, 3 days
  diameter of myotubes (muscle fiber diameter, FIG. 1): significantly increases
